# Laboratory results taken from patent US20240197828A1, “Chimeric molecule to treat sepsis and other inflammatory conditions” (THE FEINSTEIN INSTITUTES FOR MEDICAL RESEARCH, priority 2022, published 2024).
# Residues, ends and D or L forms follow the SMILES beside them.
# System: WT mice
# Assay: Sterile eCIRP-induced inflammation by rmCIRP injection in mice
# Type: in vivo, mouse
# Details: rmCIRP 5 mg/kg co-incubated 30 min with test substance, r.o. injection, 4 hours, vs eCIRP alone
# Method: FIG. 5A-5B. eCIRP-induced inflammation is attenuated by MOP3. WT mice were treated according to respective groups: PBS (volume equivalent), rmCIRP (5 mg/kg), or MOP3 (10 μg/kg) co-incubated with rmCIRP (5 mg/kg) for 30 mins prior to r.o. injection. After 4 hours, serum was measured for IL-6 (A) and TNFα (B) levels by ELISA. All experiments were performed 3 times, and all data were used for analysis (N=7-10). Data are expressed as mean±SEM and compared by one-way ANOVA and SNK test. *p<0.05 vs. PBS, #p<0.05 vs. eCIRP.
# Adult (8-12 weeks) male, C57BL/6 wild-type (WT) mice (20-30 g) were purchased from Charles River Laboratories. […] For the design of in vivo models, sample size calculation was driven by variability, effect size, significance level and power as determined through performance of early feasibility and optimization pilot studies. […]
# The mouse macrophage cell culture supernatants were analyzed for cytokine levels using ELISA kits (BD Biosciences, CA). […] TNF-α and IL-6 levels were measured in cell supernatants by ELISA in accordance with respective manufacturers' instructions (BD Biosciences, CA). Blood was collected, centrifuged at 4,000 RPM for 10 minutes, and sera was separated and analyzed for cytokine levels using ELISA kits (BD Biosciences, CA). TNF-α and IL-6 levels in the serum were measured by ELISA in accordance with respective manufacturers' instructions. […]
compound,measurement,value
"CC(C)C[C@H](NC(=O)[C@H](CC(N)=O)NC(=O)[C@H](Cc1c[nH]c2ccccc12)NC(=O)[C@@H](NC(=O)[C@H](CCCCN)NC(=O)[C@H](Cc1ccc(O)cc1)NC(=O)[C@H](CO)NC(=O)[C@H](CO)NC(=O)[C@H](CO)NC(=O)[C@H](CC(=O)O)NC(=O)CNC(=O)[C@@H](N)CCCNC(=N)N)[C@@H](C)O)C(=O)N[C@@H](CCCNC(=N)N)C(=O)N[C@@H](C)C(=O)N[C@@H](Cc1ccccc1)C(=O)NCC(=O)N[C@@H](Cc1c[nH]c2ccccc12)C(=O)N[C@@H](Cc1ccc(O)cc1)C(=O)O [MOP3, RGDSSSYKTWNLRAFGWY] (H-RGDSSSYKTWNLRAFGWY-OH; N-terminus and C-terminus assumed)",serum IL-6 levels,reduced systemic levels
same,serum TNFα levels,reduced systemic levels
